Data as given in patent publication US12564634B2, “Highly dispersible zinc phthalocyanine-silica nanotubes and preparation method therefor” (priority 2019, dated 2026).

Assay: Dispersion stability analysis with LUMiSizer (transmittance profile under centrifugation)
Format: physicochemical
Details: aqueous dispersion, 10 min ultrasonication, 5 s intervals, total 55 s, steeper slope = lower dispersion stability, Test Group I value matches the sample stored one day after dispersing
Experimental: In this experimental example, the dispersion stability of highly dispersible zinc phthalocyanine-silica nanotubes was tested. The dispersion stability analysis was performed with the use of LUMiSizer™.
In this regard, the dispersion stability refers to the stability of a dispersed material, and the longer the dispersion state is maintained after being dispersed, the higher the dispersion stability. As a measurement method, there is a method of directly observing the change in dispersion stability of the sample. In this regard, to shorten the observation time, there is a method of letting the sample to experience harsh conditions such as centrifugal force or heating so that the change in dispersion stability of the sample can be checked in a quick time (refer to “Procedures to accelerate the evaluation of long-term stability”, ISO/TR 13097). For example, the sample may undergo centrifugation so that relatively quick sedimentation of particles can occur compared to gravity sedimentation. In this case, layer separation occurs. […] A detector detects the IR rays having transmitted through the sample, and the detected rays are represented in real time as a transmittance profile. It is a method of performing comparative analysis of dispersion stability between samples by quantifying the generation rate, pattern, etc. of such a profile. […]

increase slope of the average value of the transmittance profile (rate in %/s): 17.70 %/s
SMILES: [Zn+2].c1ccc2c(c1)-c1nc-2nc2[n-]c(nc3nc([n-]c4nc(n1)-c1ccccc1-4)-c1ccccc1-3)c1ccccc21 [Control Group, zinc phthalocyanine]
